The source of these data is patent publication US10316028B2, “Orexin receptor antagonists” (Heptares Therapeutics Limited, priority 2012, dated 2019).

The test system of one assay is preclinical sleep models. To be noted: in vivo; cited from earlier work.
Assay [1] deals with patients with primary insomnia. To be noted: Phase II; cited from earlier work.
Assay [2] addresses T1, cortical orexin-2 receptors (Rattus norvegicus, UniProt P56719).
T1 construct: from tissue; host or cells: rat brain cortex sections (Sprague Dawley)
T1 sequence (P56719 1-460): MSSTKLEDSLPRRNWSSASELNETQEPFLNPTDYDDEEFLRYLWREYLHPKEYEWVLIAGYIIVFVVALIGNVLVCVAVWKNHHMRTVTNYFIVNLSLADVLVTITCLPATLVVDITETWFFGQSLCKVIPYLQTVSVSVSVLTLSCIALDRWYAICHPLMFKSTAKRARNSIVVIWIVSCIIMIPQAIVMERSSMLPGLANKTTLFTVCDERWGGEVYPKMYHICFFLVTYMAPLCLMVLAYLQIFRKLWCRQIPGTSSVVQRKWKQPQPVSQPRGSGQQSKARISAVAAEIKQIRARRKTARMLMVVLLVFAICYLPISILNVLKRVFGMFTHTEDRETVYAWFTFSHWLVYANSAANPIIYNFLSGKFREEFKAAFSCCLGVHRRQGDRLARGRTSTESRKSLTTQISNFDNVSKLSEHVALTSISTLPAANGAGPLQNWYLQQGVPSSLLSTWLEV
In words: Ex vivo orexin-2 receptor occupancy. Format: in vivo. To be noted: for ED50: po. The procedure: Ex Vivo Orexin-2 Receptor Occupancy
Male Sprague Dawley rats were dosed orally with either vehicle, example 145, (0.3-10 mg/kg po) or example 100, (1 mg/kg, po). Vehicle for example 145 was 90% PEG400/10% Tween-80; for example 100 10% DMAC+10% Solutol+80% (10% HPβCD in water). 1 h post-dose, animals were sacrificed and brains removed. A coronal block containing the cortex was rapidly frozen in isopentane for sectioning and autoradiography. 20 μm thick sections were mounted onto slides and incubated with [^3H]EMPA (total binding) or [^3H]EMPA and 1 μM TCS OX2 29 (non-specific binding) for 20 min at rt. Binding was terminated by aspiration and washing with ice-cold assay buffer and allowed to air dry. Levels of bound radioactivity in the sections were determined using a beta imager over a 16 h period. Occupancy was determined as mean specific binding with the vehicle treated control taken as 100%.

For another assay, the target named is T2, human Orexin-2 receptor (Homo sapiens, UniProt O43614).
T2 construct: expressed in transfected cells; host or cells: HEK293 cells (transient transfection, Genejuice); membranes
T2 sequence (O43614 1-444): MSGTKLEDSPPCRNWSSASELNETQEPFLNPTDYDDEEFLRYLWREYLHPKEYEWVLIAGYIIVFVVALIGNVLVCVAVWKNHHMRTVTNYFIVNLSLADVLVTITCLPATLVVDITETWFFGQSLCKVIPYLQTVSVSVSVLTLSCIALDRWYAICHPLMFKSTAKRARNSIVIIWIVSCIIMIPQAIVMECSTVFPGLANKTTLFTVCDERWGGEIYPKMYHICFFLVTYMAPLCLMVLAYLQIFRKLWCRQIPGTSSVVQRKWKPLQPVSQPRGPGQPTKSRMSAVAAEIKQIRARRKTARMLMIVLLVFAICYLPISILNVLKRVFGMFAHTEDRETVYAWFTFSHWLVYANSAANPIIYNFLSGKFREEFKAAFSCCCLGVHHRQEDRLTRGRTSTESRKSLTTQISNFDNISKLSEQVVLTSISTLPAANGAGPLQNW
In words: 3H-EMPA radioligand binding assay. To be noted: 3H-EMPA displacement, membranes of HEK293 cells transfected with human Orexin-2 receptor; KI by Cheng-Prussoff; read-out: OX2 pKi ave (converted). A digest of the protocol:
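Membranes from HEK293 cells transiently transfected with human orexin-2 receptor cDNA, assayed with [3H]EMPA. Bound ligand collected on PEI-treated GF/B filters and counted by scintillation; IC50 from inhibition curves, Ki by Cheng-Prusoff.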

The next assay concerns rat CT18 sleep model. In words: Rat telemetered sleep study (rat CT18 sleep model). It counts as in vivo. To be noted: male CD rats, 3 mg/kg po at CT18, ANOVA over 3 hours post-treatment. The method, then: Rat Telemetered Sleep Study
Example 100 was assessed for activity in a rat CT18 sleep model. Adult male CD rats (250-300 g) were implanted with telemetric probes fixed to the skull to record cortical electroencephalogram (EEG), and with telemetric probes fixed to the skeletal muscles of the neck to record electromyogram (neck EMG), and allowed to recover for 3 weeks to re-establish normal sleep patterns. Rats were administered with example 100 (3, 10 and 30 mg/kg, po) or vehicle (80% v/v PEG400, 20% v/v Cremophor EL, 2 ml/kg) at Circadian Time (CT) 18, six hours after lights off. EEG and neck EMG traces were recorded for 5 hours after treatment and analysed to determine time spent awake and in NREM sleep and REM sleep.

The subject of assay [3] is primary insomnia patients. To be noted: Phase IIb study; cited from earlier work.

Molecules are shown by their SMILES. Where two headings read alike, the source gives them in different places.

By ED50 is commonly meant the dose at which the effect has come halfway, by size or by number of responders.

Take `Cc1ccc(-c2ncccn2)c(C(=O)N2C[C@H](COc3ccc(F)cn3)CC[C@H]2C)c1` [MK-6096]: the “efficacy in preclinical sleep models” value in the assay with preclinical sleep models is “shows efficacy”.

Take `CNC(=O)[C@@H](c1ccccc1)N1CCc2cc(OC)c(OC)cc2[C@@H]1CCc1ccc(C(F)(F)F)cc1` [almorexant]: in assay [1], the sleep efficiency entry was “dose-dependently increased”.

On to `COc1cc(N2C(=O)N(Cc3c(F)cc(F)cc3F)c3ccccc3S2(=O)=O)cnc1OC` [Example 145, 2-(5,6-Dimethoxypyridin-3-yl)-4-(2,4,6-trifluorobenzyl)-2H-1,2,4-benzothiadiazin-3(4H)-one 1,1-dioxide], for which the “occupancy of cortical orexin-2 receptors, dose dependence” value in assay [2] (male Sprague Dawley rats, 0.3-10 mg/kg po, 1 h post-dose) was “dose dependent manner”. Moreover, the ED50 in assay [2] (rat, male Sprague Dawley rats, 0.3-10 mg/kg, 1 h post-dose, estimated, read-out: ED50 of cortical orexin-2 receptor occupancy) is 5.8 mg/kg. Besides, the Ki at human Orexin-2 receptor is 4.68 nM.

Take `COc1cc(N2C(=O)N(Cc3c(F)cc(F)cc3F)c3ncccc3S2(=O)=O)cnc1OC` [Example 100, 2-(5,6-Dimethoxypyridin-3-yl)-4-(2,4,6-trifluorobenzyl)-2H-pyrido[2,3-e][1,2,4]thiadiazin-3(4H)-one 1,1-dioxide]: in the assay on rat CT18 sleep model, the NREM sleep result was “statistically significant increases”, the REM sleep entry is “statistically significant increases” and the time spent awake entry was “statistically significant decrease”. The ED50 in assay [2] (rat, inferred from 57% occupancy at 1 mg/kg, read-out: ED50 value of orexin-2 receptor occupancy (suggested from single dose)) is less than 1 mg/kg. In assay [2] (rat, male Sprague Dawley rats, 1 mg/kg po, 1 h post-dose), this compound yielded a receptor occupancy at 1 mg/kg of 57%. Besides, the Ki on human Orexin-2 receptor is 2.45 nM.

For the compound `Cc1ccc(-n2nccn2)c(C(=O)N2CCN(c3nc4cc(Cl)ccc4o3)CC[C@H]2C)c1` [suvorexant], the sleep efficiency result in assay [3] is reported as “increased”.
